Measured values: US12486300B2, “Mithramycin oxime derivatives having increased selectivity and anti-cancer activity” (University of Kentucky Research Foundation, priority 2018, dated 2025)

Tests used:
[1] = test system: TC32 Ewing sarcoma cells, expressing EWS-FLI1; assay: Growth inhibition assay, TC32 cells; assay type: cell-based; details: for EC50: Table 1D, read-out: TC-32 Mean EC50; for PC:TC32 (cellular selectivity): ratio of GI50 PC3 to TC32
[2] = test system: PC3 Prostate Cancer Cells; assay: Growth inhibition assay, PC3 cells; assay type: cell-based; details: for EC50: Table 1D
Procedure: (§1) Growth inhibition assay to assess cytotoxicity in ETS vs non-ETS expressing cells. Cells were seeded in clear 96-well plates (VWR, Radnor, PA). Seeding densities were optimized for each cell line to support 5 days of linear growth. Following a 24 hours attachment period, cells in duplicate wells were treated with half-log increments of respective compounds (0 nM and 0.3 nM-10 μM). Working stocks were prepared from an initial 10 mM drug stock diluted in either 100% ethanol or dimethyl sulfoxide (DMSO). All wells contained a final concentration of 0.1% (v/v) respective organic solvent. Immediately following treatment, cell viability was measured for vehicle control (Day 0) wells. Cell viability was measured in the remaining wells after 72 hours of incubation with compound or vehicle control (Day 3).
(§2) Percent viability, relative to the initial cell seeding concentration, was calculated by ((TreatmentDay3−Vehicle ControlDay0)/(Vehicle ControlDay3−Vehicle ControlDay0))×100. Percent cell viability was plotted as a function of compound concentration (Log [M]) and the data were fit using a 3-parameter non-linear model with fixed Hill slope constant and 4-parameter non-linear model with variable Hill slope constant. The model with the best curve fit was used to estimate the GI50 in GraphPad Prism 7.0 software (GraphPad Software, La Jolla, CA). The 3-parameter equation used was Y=Bottom+(Top−Bottom)/(1+10[…]((X−Log[IC50]))). The 4-parameter equation used was Y=Bottom+(Top−Bottom)/(1+10[…]((Log[IC50]−X)*Hillslope)). Top and Bottom are plateaus in the units of the Y-axis (response). IC50 is the response (Y-axis) halfway between Top and Bottom plateaus.
(§3) All compounds were tested at least once in multi-well replicates and each experiment included one a control compound (i.e., MTM) to ensure the stable response of the cell lines. The selectivity index was estimated by determining the ratio of GI50 estimates between ETS fusion negative and ETS fusion positive cell lines.

[3] = test system: G-401 (ATTC Cat. No., CRL-1441); Rhabdoid tumor of the kidney; assay: Growth inhibition assay, G-401 cells; assay type: cell-based; details: for EC50: Table 1D
Procedure: as §1, with “3). For viability measurements, 0.1 mM resazurin (Sigma, St. Louis, MO) was added to wells and following 3 hours of incubation at 37° C., fluorescence readings ([…]) were recorded using a SpectraMax M5 plate reader (Molecular Devices, Sunnyvale, CA).” for “3).”
as §2
as §3, with “GI50 values were determined by pooling all available experiments and reported with 95% confidence interval, calculated from GraphPad Prism 7.0 software curve fit. All” for “All”

[4] = test system: A-204 (ATTC Cat. No., HTB-82); Rhabdomyosarcoma (embryonal); assay: Growth inhibition assay, A-204 cells; assay type: cell-based; details: for EC50: Table 1D
Procedure: as §1, with “3). For viability measurements, 0.1 mM resazurin (Sigma, St. Louis, MO) was added to wells and following 3 hours of incubation at 37° C., fluorescence readings ([…]) were recorded using a SpectraMax M5 plate reader (Molecular Devices, Sunnyvale, CA).” for “3).”
as §2
as §3, with “GI50 values were determined by pooling all available experiments and reported with 95% confidence interval, calculated from GraphPad Prism 7.0 software curve fit. All” for “All”

[5] = test system: RH30 muscle rhabdomyosarcoma; assay: Growth inhibition assay, RH30 cells; assay type: cell-based; details: Table 1D
Procedure: as §1, with “3). For viability measurements, 0.1 mM resazurin (Sigma, St. Louis, MO) was added to wells and following 3 hours of incubation at 37° C., fluorescence readings ([…]) were recorded using a SpectraMax M5 plate reader (Molecular Devices, Sunnyvale, CA).” for “3).”
as §2
as §3, with “GI50 values were determined by pooling all available experiments and reported with 95% confidence interval, calculated from GraphPad Prism 7.0 software curve fit. All” for “All”

[6] = test system: U-2 OS bone osteosarcoma; assay: Growth inhibition assay, U-2 OS cells; assay type: cell-based; details: Table 1D
Procedure: as §1, with “3). For viability measurements, 0.1 mM resazurin (Sigma, St. Louis, MO) was added to wells and following 3 hours of incubation at 37° C., fluorescence readings ([…]) were recorded using a SpectraMax M5 plate reader (Molecular Devices, Sunnyvale, CA).” for “3).”
as §2
as §3, with “GI50 values were determined by pooling all available experiments and reported with 95% confidence interval, calculated from GraphPad Prism 7.0 software curve fit. All” for “All”

[7] = IV bolus pharmacokinetics in monkey; assay type: in vivo; details: single monkey, IV bolus 10 mg/kg, 2-compartment modeling
Procedure: Reference is made to FIGS. 6A and 6B. MTM and exemplary compound MTM(20) were each administered as an IV bolus injection (10 mg/kg) to assess the pharmacokinetics in a single monkey. Estimation of the area under the curve (AUC) was done by 2-compartment modeling. MTM20 has ˜3-fold lower clearance (CL) than mithramycin, which corresponds to an equivalent increase in exposure as measured by the AUC.

[8] = test system: TC-32 cells (EWS-FLI1+) subcutaneously implanted; assay: Efficacy studies in mouse xenografts (TC-32); assay type: in vivo, mice; details: for Significant? survival vs. Vehicle: overall significance level 0.05
Procedure: Efficacy studies in mouse xenografts. TC-32 cells were suspended in 1:1 (v/v) media: Matrigel on ice and injected subcutaneously into the flank of female immunocompromised athymic nude NU/NU mice at a density of 1.0×10^6 cells per 100 μL. Mice with tumors of at least 75 mm^3 were randomly assigned to treatment groups, n=8-12 mice per group and n=6-10 mice per vehicle control treated group. Tumor volumes were monitored every 2-3 days and mice were euthanized once tumor volumes reached 1500 mm^3. In some experiments, tumors were allowed to grow to 20 mm in one direction prior to animals being removed from the study. Average tumor volume among the replicates were plotted, as well as survival plots, using GraphPad Prism 7.03 software. All animal studies were conducted under approved institutional animal care and use committee (IACUC) protocol.
Reference is made to FIGS. 3A-3G, which include data from an efficacy study involving exemplary compound MTM (20). TC-32 cells (EWS-FLI1+) were subcutaneously implanted in female NU/NU mice. Gray shadding starting at 0 days. indicates dosing window. FIG. 3B includes MTM20 at 21 mg/kg, FIG. 3C includes MTM20 at 15 mg/kg, FIG. 3D includes vehicle (control), FIG. 3E includes MTM (control) at 1 mg/kg, and FIG. 3F includes MTM (contro) at 0.65 mg/kg. Dosing route: IV bolus; Schedule: q2d×8.
Reference is made to FIGS. 4A and 4B, and Table 2, which include data from an efficacy/survival study involving exemplary compound MTM(20). TC-32 cells (EWS-FLI1+) were subcutaneously implanted in female NU/NU mice. FIG. 4A includes survival curves and FIG. 4B includes median survival plots of mice (n=6-7/group).
Further Efficacy Studies. Additional efficacy studies are ongoing with MTM20 at a daily schedule (total of 5 doses).
In comparison, nine of 10 tumor volumes, in the control group have increased by 50% or more and one increased approximately 15% above baseline.
In comparison all tumors in the control group grow by 30% or more relative to baseline.

[9] = Maximum tolerated dose, daily×5 schedule; assay type: in vivo, mice
[10] = Hematology profile in monkeys; details: IV bolus 15 mg/kg
Procedure: Reference is made to FIGS. 7A-7F, which include include data for a hematology profile in monkeys. MTM and MTM20 were dosed as an IV bolus injection (10 mg/kg and 15 mg/kg) in two monkeys each to assess toxicity. […] Gray areas are reference values.

[11] = molecular target: T1, EWS-FLI1 (Homo sapiens, UniProt Q01543+Q01844); details: Grohar et al. 2011; cited from earlier work
T1 sequence (Q01543 276-373 limits assumed): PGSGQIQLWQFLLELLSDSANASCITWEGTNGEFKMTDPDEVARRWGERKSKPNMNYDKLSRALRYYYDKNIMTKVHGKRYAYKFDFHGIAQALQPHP

Q: What does the source list for `COC(C(=NOCC(=O)NC(Cc1c[nH]c2ccccc12)C(=O)N1CCC1)C(O)C(C)O)C1Cc2cc3cc(OC4CC(OC5CC(O)C(O)C(C)O5)C(O)C(C)O4)c(C)c(O)c3c(O)c2C(=O)C1OC1CC(OC2CC(OC3CC(C)(O)C(O)C(C)O3)C(O)C(C)O2)C(O)C(C)O1` (stereo not shown) [MTM104]?
A: TC32 vs. PC3 ([1]; Table 1C, cellular selectivity): 8×; IC50 ([1]; Table 1C, read-out: IC50 TC-32): 87 nM; EC50 [1]: 91.7 nM; IC50 ([2]; Table 1C): 730 nM; EC50 [2]: 671 nM; IC50 ([3]; Table 1C): 219 nM; EC50 [3]: 222 nM; IC50 ([4]; Table 1C): 864 nM; EC50 [4]: 883 nM; EC50 [5]: 295 nM; EC50 [6]: > 10000 nM

Q: With `COC(=O)C(Cc1c[nH]c2ccccc12)NC(=O)CON=C(C(O)C(C)O)C(OC)C1Cc2cc3cc(OC4CC(OC5CC(O)C(O)C(C)O5)C(O)C(C)O4)c(C)c(O)c3c(O)c2C(=O)C1OC1CC(OC2CC(OC3CC(C)(O)C(O)C(C)O3)C(O)C(C)O2)C(O)C(C)O1` (stereo not shown) [MTM (20)] as the compound, how does the “PC:TC32 (cellular selectivity)” value [1] read?
A: Its value is 24.5.

Q: What about the “lower clearance (CL) than mithramycin” value [7] of the same compound?
A: Its value is roughly 3 fold.

Q: What about the “reduction in tumor volume” value ([8]; Experiment 1: 14.7 mg/kg (⅔ of MTD), daily schedule 5 doses, 2 days after end of treatment, 7 animals) of the same compound?
A: The value was “greater than 50%”.

Q: And the “tumor volumes decreased, of the original tumor volume” value ([8]; Experiment 2: 24 mg/kg (full MTD) daily×5, following the 4th dose)?
A: Its value is 10-70%.

Q: What about the “Significant? survival” value ([8]; MTM20 - 2/3MTD vs. MTM - 2/3MT) of the same compound?
A: The value was “No”.

Q: What about the “Significant? survival” value ([8]; MTM20 - 2/3MTD vs. MTM - MTD) of the same compound?
A: The value was “No”.

Q: And the “Significant? survival” value ([8]; MTM20 - MTD vs. MTM20 - 2/3MTD)?
A: Its value is “No”.

Q: And the “Significant? survival” value ([8]; MTM20 - MTD vs. MTM - 2/3MTD)?
A: Its value is “No”.

Q: And the “Significant? survival” value ([8]; MTM20 - MTD vs. MTM - MTD)?
A: Its value is “No”.

Q: And the “Significant? survival vs. Vehicle” value ([8]; at 2/3MTD)?
A: The value was “Yes”.

Q: What about the “Significant? survival vs. Vehicle” value ([8]; at MTD) of the same compound?
A: The value was “Yes”.

Q: What about the “initial response with new dosing schedules” value ([8]; daily schedule (5 doses) compared to q2Dx8) of the same compound?
A: Its value is “significantly improved”.

Q: What about the “predicted efficacy of standard clinical dosing regimen” value ([8]; daily×5×2 weeks (qDx5×2w)) of the same compound?
A: Its value is “notably efficacious and potentially curative”.

Q: What about the “full MTD of the daily×5 schedule” value [9] of the same compound?
A: Its value is 24 mg/kg.

Q: For `CNC(=O)[C@H](Cc1c[nH]c2ccccc12)NC(=O)CO/N=C(\[C@@H](O)[C@@H](C)O)[C@@H](OC)[C@@H]1Cc2cc3cc(O[C@H]4C[C@@H](O[C@H]5C[C@@H](O)[C@H](O)C(C)O5)[C@H](O)C(C)O4)c(C)c(O)c3c(O)c2C(=O)[C@H]1O[C@H]1C[C@@H](O[C@H]2C[C@@H](O[C@H]3C[C@](C)(O)[C@H](O)C(C)O3)[C@H](O)C(C)O2)[C@H](O)C(C)O1` (stereo partly shown) [MTM (40)], which EC50 [1] is on record?
A: Its EC50 is 414 nM.

Q: What about the “PC:TC32 (cellular selectivity)” value [1] of the same compound?
A: Its value is 11.8.

Q: And the EC50 [2]?
A: The EC50 was 2900 nM.

Q: What about the EC50 [3] of the same compound?
A: Its EC50 is 40.2 nM.

Q: What about the EC50 [4] of the same compound?
A: The EC50 was 256 nM.

Q: What about the EC50 [5] of the same compound?
A: The EC50 was 1200 nM.

Q: What about the EC50 [6] of the same compound?
A: Its EC50 is greater than 10000 nM.

Q: Which results are given for `CO[C@H](C(=O)[C@@H](O)[C@@H](C)O)[C@@H]1Cc2cc3cc(O[C@H]4C[C@@H](O[C@H]5C[C@@H](O)[C@H](O)[C@@H](C)O5)[C@H](O)[C@@H](C)O4)c(C)c(O)c3c(O)c2C(=O)[C@H]1O[C@H]1C[C@@H](O[C@H]2C[C@@H](O[C@H]3C[C@](C)(O)[C@H](O)[C@@H](C)O3)[C@@H](O)[C@@H](C)O2)[C@H](O)[C@@H](C)O1` [MTM, Mithramycin]?
A: platelets counts [10]: significant reduction in platelets counts; Significant? survival ([8]; MTM - MTD vs. MTM - 2/3MTD): No; Significant? survival vs. Vehicle ([8]; at 2/3MTD): No; Significant? survival vs. Vehicle ([8]; at MTD): No; potency as inhibitor of EWS-FLI1 in Ewing sarcoma cells [11]: low-nM
